Data: US11980620B2, “Compounds and methods for treatment of Diamond Blackfan anemia” (THE CHILDREN'S MEDICAL CENTER CORPORATION, priority 2017, dated 2024)

How the values were obtained:
DBA iPSCs = assay: Cytotoxicity (Annexin and DAPI positive cells) at varying doses; format: cell-based, human; settings: drug doses up to 20 μM
Excerpt: FIGS. 9A-9D show compounds screened for rescue of erythroid differentiation defects. […] (FIG. 9B) List of compounds screened that provided promising results. (FIG. 9C) FACS plots showing GlyA and CD71 expression levels for indicated genotype (top panels). Micrographs showing GlyA^+ CD71^+ cells in indicated genotype (bottom panels). (FIG. 9D) Plot showing the percentage of Annexin and DAPI positive cells following varying doses of SMER28.

CB CD34+ cells = format: in vivo, NSG mice
Protocol: (FIG. 10A) SMER28 rescues RBC output in rps29^+/− zebrafish embryos. The level of hemoglobin in the yolk sac was visualized 40hpf with benzidine staining. Images are representative of the proportion of embryos indicated (of total counted). (FIG. 10B) Quantitation of SMER28 rescue for a range of 0.1-1 μM, with embryos grouped by high, medium, and low levels of hemoglobin staining. (FIG. 10C) Peripheral blood (PB) RBC counts and hematocrit in mice with irradiation-induced anemia. Mice were treated with the PEG400-based vehicle containing DMSO (VEH) (n=11), 1 mg/kg Dex (sodium-phosphate) (n=13), or 10 mg/kg SMER28 (n=9) for 3 weeks, bled, and assessed. Data are combined from 3 independent experiments. (FIG. 10D) Erythroid cells as proportion of the human graft in mice transplanted with DBA CD34-5F progenitors, and treated as in (FIG. 1c). (FIG. 10E) Levels of human engraftment in NSG mouse bone marrow (BM) transplanted with CB CD34^+ cells. Mice were treated with DMSO plus vehicle (VEH) (n=10), 1 mg/kg Dex (sodium-phosphate) (n=6), or 2 mg/kg SMER28 (n=11) for 4 weeks. (FIG. 10F) The proportion of erythroid, myeloid, and lymphoid (B cells) lineages within the human graft in vehicle- and SMER28-treated mice transplanted with CB CD34^+ cells. Only the effect on the erythroid lineage was significant. Data in FIGS. 10E-10G are pooled from 2 independent experiments. For all panels, *p<0.05, * *p<0.01.
Drug treatments. SMER28 was purchased from Tocris and diluted in 10 mM aliquots in DMSO. The final concentration for CD34-5F and CB CD34^+erythroid treatments was 0.2-10 μM as indicated in the text. The final concentration for K562 cell treatments was 20-40 μM. Ferric citrate (1-50 μM) and deferoxamine (100-200 μM) (Sigma) were dissolved in PBS and added on days 0-4 of “expansion” culture, and washed off prior to erythroid stage I (days 4-9) differentiation. For in vivo experiments, SMER28 aliquots were diluted in vehicle solution: 30% PEG-400, 5% propylene glycol, and 0.5% Tween-80. Dosing for human xenograft experiments was 2 mg/kg; for mouse models 10-20 mg/kg. Dexamethasone was purchased as Dex-sodium phosphate (DexSP) water-soluble formulation (Santa Cruz), and diluted in PBS vehicle (1 mg/kg). NSG mice were sub-lethally irradiated at 275 rads, and administered 100 μl of drug or vehicle by oral gavage daily.

LC3 = assay: Autophagic marker LC3 levels in liver of treated mice; format: in vivo, mouse
Excerpt: (§1) FIGS. 11A-11C show effect of SMER28 on CD34+ progenitors. (FIG. 11A) Protein levels of LC3-I and LC3-II in control and SMER28 treated mice. GADPH is used as a loading control. […] (FIG. 11C) Atg5 morpholino treatment of rps29^+/− zebrafish.
In following evaluation, the effects of administration of SMER28 to mice with irradiation-induced anemia, a model that enables dose-finding and initial testing of safety and bioactivity. […] To assess bioactivity, we measured the levels of autophagic marker LC3 in treated animals. […] (FIG. 10C). We tested the effect of this compound on human cells by treating NSG mice transplanted with human CD34-5F and CB cells. SMER28 increased the output of GlyA^+ RBCs from DBA CD34-5F cells (FIG. 10D).

[1] = tested on: rps29+/- zebrafish with atg5 knockdown; assay: atg5 morpholino knockdown in rps29+/- zebrafish, hemoglobin staining; format: in vivo; settings: 1.6 ng atg5 morpholino; SMER28 1 μM
Protocol: as §1
(FIG. 13A) Induction of autophagy by SMER28 (40 μM) monitored by protein levels of p62, LC3-I, and LC3-II after 24 hours. Cells were also treated with 5-FU (100 nM) to induce autophagy, or inhibitor of transcription actinomycin D (ActD; 100 nM). (FIG. 13B) Induction of autophagy by SMER28 (40 μM) monitored by protein levels of p62, LC3-I, and LC3-II after 24 hours treatment with or without lysosomal blockade with bafilomycin A (200 nM for 4 hours). Untreated samples are shown at higher exposure, to capture dynamic changes in the LC3-II levels. Rapamycin (200 nM) is a positive control. LC3-II levels relative to GAPDH are quantitated on the right. (FIG. 13C) Erythroid differentiation of CD34-5F cells transduced with shRNAs for luciferase (LUC) or ATG5±SMER28. Representative flow plots and quantitation showing the number of erythroid cells induced by SMER28 (10 μM) normalized to DMSO. […] Representative images (left), and quantitation (right) with embryos grouped by high, medium, and low levels of benzidine staining. […]

A53T alpha-synuclein = settings: PC-12 cells; independent of rapamycin treatment; cited from earlier work

Question: With C=CCNc1ncnc2ccc(Br)cc12 [SMER28, 6-Bromo-N-2-propenyl-4-quinazolinam] as the molecule, how does the Cytotoxicity (DBA iPSCs) read?
Answer: Its Cytotoxicity is “not observed”.

Question: And the “distribution of myeloid and lymphoid lineages in human graft” value (CB CD34+ cells; 2 mg/kg SMER28 for 4 weeks)?
Answer: Its value is “did not affect”.

Question: And the “erythroid contribution to human graft (RBCs as proportion of human graft)” value (CB CD34+ cells; 2 mg/kg SMER28 for 4 weeks, vehicle 5.5%, p=0.05)?
Answer: Its value is 13.0%.

Question: And the “human chimerism in bone marrow” value (CB CD34+ cells; 2 mg/kg for 4 weeks, ns vs vehicle)?
Answer: Its value is 25.2%.

Question: What about the “LC3-I and LC3-II levels in the liver” value (LC3) of the same molecule?
Answer: The value was “modestly increased”.

Question: What about the “rescue of erythropoiesis after atg5 knockdown” value [1] of the same molecule?
Answer: The value was “abolished”.

Question: What about the A53T alpha-synuclein clearance (A53T alpha-synuclein) of the same molecule?
Answer: Its A53T alpha-synuclein clearance is “Enhances”.
